Values quoted from earlier work, collected in patent publication US7718385B2, “Bioactivation of alkylating agents for cancer treatment” (priority 2003, dated 2010).

How the values were obtained:
CAKI-1 = conditions: CAKI-1, Renal, cited from earlier work
SR = conditions: cited from earlier work

CC1=C(CO)C2=C(C)C3(CC3)[C@@](C)(O)C(=O)C2=C1 [Irofulven, 6-hydroxymethylacylfulvene]
GI50 (CAKI-1): 251 nM
TGI (CAKI-1): 7.94E−07
log(GI50) (CAKI-1): −6.6
log(LC50) (CAKI-1): −4.3
log(TGI) (CAKI-1): −6.1
CC50 (CAKI-1; read-out: LC50): 50100 nM
GI50 (SR; Leukemia): 794 nM
TGI (SR; Leukemia): 1.00E−04
log(GI50) (SR; Leukemia): −6.1
log(TGI) (SR; Leukemia): −4
CC50 (SR; read-out: LC50, Leukemia): ≥ 100000 nM
